Assay results published in patent publication US11840686B2, “Modulation of prekallikrein (PKK) expression” (Ionis Pharmaceuticals, Inc., priority 2013, dated 2023).
Strand notation (5' to 3'): a small letter for the sugar, then the base; units joined by * are phosphorothioate-linked, units joined directly phosphodiester-linked; [ ] holds rarer units or linkages, { } end groups; capitals alone tell only the bases. e = 2'-O-(2-methoxyethyl) (MOE); k = constrained ethyl (cEt); [5mC] = 5-methylcytosine; d = 2'-deoxy (DNA)

How the values were obtained:
human PKK mRNA [1] = test: Antisense inhibition of human PKK mRNA in HepaRG cells, 1,000 nM, MOE/deoxy/cEt oligonucleotides (Example 3); format: cell-based; settings: HepaRG cells, electroporation with 1,000 nM antisense oligonucleotide, approximately 24 hours
Procedure, shortened: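 Readout is percent PKK mRNA reduction against untreated controls, by real-time PCR (RTS3454) adjusted for total RNA via RIBOGREEN. Oligonucleotides, phosphorothioate gapmers of 16 nucleosides with cEt, MOE and deoxy sugars, were delivered at 1,000 nM by electroporation to 20,000 HepaRG cells/well for roughly 24 h.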

human PKK mRNA [2] = test: Dose-dependent antisense inhibition of human PKK in HepaRG cells, 0.11-3.00 uM (Example 6); format: cell-based; settings: for IC50: 0.11-3.00 μM; for percent inhibition of PKK mRNA, 0.11 μM / percent inhibition of PKK mRNA, 0.33 μM / percent inhibition of PKK mRNA, 1.00 μM / percent inhibition of PKK mRNA, 3.00 μM: electroporation, approx. 16 hours, relative to untreated control cells
Experimental: Cells were plated at a density of 20,000 cells per well and transfected using electroporation with 0.11 μM, 0.33 μM, 1.00 μM, and 3.00 μM concentrations of antisense oligonucleotide. After a treatment period of approximately 16 hours, RNA was isolated from the cells and PKK mRNA levels were measured by quantitative real-time PCR. Human PKK primer probe set RTS3454 was used to measure mRNA levels. PKK mRNA levels were adjusted according to total RNA content, as measured by RIBOGREEN®. The antisense oligonucleotides were tested in a series of experiments that had similar culture conditions.
The half maximal inhibitory concentration (IC50) of each oligonucleotide is also presented.

[3] = primer probe set RTS3454, relative to untreated control cells, experiment of Table 23
[4] = primer probe set RTS3454, relative to untreated control cells, experiment of Table 24

Substance	% inhibition (human PKK mRNA [1]; [3])	IC50 (human PKK mRNA [2])	percent inhibition of PKK mRNA, 0.11 μM (human PKK mRNA [2])	percent inhibition of PKK mRNA, 0.33 μM (human PKK mRNA [2])	percent inhibition of PKK mRNA, 1.00 μM (human PKK mRNA [2])	percent inhibition of PKK mRNA, 3.00 μM (human PKK mRNA [2])	% inhibition (human PKK mRNA [1]; [4])	% inhibition (human PKK mRNA [1]; Table 19, PKK mRNA by RT-PCR (RTS3454), relative to untreated control cells)
547942 (eG*eG*kT*dG*dT*dG*d[5mC]*d[5mC]*dA*d[5mC]*dT*dT*dT*k[5mC]*kA*eG; antisense) [compound 547942]	85%	300 nM	25%	51%	91%			
547943 (eT*eG*kG*dT*dG*dT*dG*d[5mC]*d[5mC]*dA*d[5mC]*dT*dT*kT*k[5mC]*eA; antisense) [compound 547943]	83%	200 nM	33%	70%	87%	90%		
547946 (eG*eA*kA*d[5mC]*dT*dT*dG*dG*dT*dG*dT*dG*d[5mC]*k[5mC]*kA*e[5mC]; antisense) [compound 547946]	81%	500 nM	0%	47%	74%			
547947 (eG*eG*kA*dA*d[5mC]*dT*dT*dG*dG*dT*dG*dT*dG*k[5mC]*k[5mC]*eA; antisense) [compound 547947]	80%	300 nM	24%	58%	81%	93%		
547948 (eA*eG*kG*dA*dA*d[5mC]*dT*dT*dG*dG*dT*dG*dT*kG*k[5mC]*e[5mC]; antisense) [compound 547948]	77%		60%	80%	88%	97%		
547979 (antisense eG*eT*k[5mC]*dT*d[5mC]*dT*dT*dG*dG*d[5mC]*dA*dA*dA*k[5mC]*kA*eT) [compound 547979]	77%		56%	58%	94%	97%		
547997 (antisense eT*eT*kG*dT*dG*dT*d[5mC]*d[5mC]*d[5mC]*dA*dT*dA*d[5mC]*kG*k[5mC]*eA) [compound 547997]		200 nM	39%	68%		82%	89%	
547998 (antisense e[5mC]*eT*kT*dG*dT*dG*dT*d[5mC]*d[5mC]*d[5mC]*dA*dT*dA*k[5mC]*kG*e[5mC]) [compound 547998]			55%	73%	91%	91%	82%	
548004 (eA*eG*kT*dA*dA*d[5mC]*d[5mC]*dA*dG*dA*dG*d[5mC]*dT*k[5mC]*k[5mC]*e[5mC]; antisense) [compound 548004]		300 nM	24%	47%	80%	92%	80%	
548005 (eA*eG*kA*dG*dT*dA*dA*d[5mC]*d[5mC]*dA*dG*dA*dG*k[5mC]*kT*e[5mC]; antisense) [compound 548005]		400 nM	53%	49%	71%	95%	77%	
548010 (eA*eG*kT*dG*dT*dT*dA*d[5mC]*dA*d[5mC]*dA*dA*dT*k[5mC]*kT*e[5mC]; antisense) [compound 548010]		1400 nM	0%	11%	49%	64%	80%	
548024 (eG*e[5mC]*kT*dG*dT*d[5mC]*dA*dG*d[5mC]*dT*dT*d[5mC]*dA*k[5mC]*k[5mC]*eT; antisense) [compound 548024]		300 nM	28%	57%	84%	82%	79%	
548043 (eA*eT*kT*dT*dG*dT*dG*dA*dG*dA*dA*dA*dG*kG*kT*eG; antisense) [compound 548043]		300 nM	14%	60%	90%	92%	76%	
548046 (eT*eA*kT*d[5mC]*dA*dT*dG*dA*dT*dT*d[5mC]*d[5mC]*d[5mC]*kT*kT*e[5mC]; antisense) [compound 548046]		700 nM	7%	35%	64%	77%	84%	
548047 (eG*eA*kT*dA*dT*d[5mC]*dA*dT*dG*dA*dT*dT*d[5mC]*k[5mC]*k[5mC]*eT; antisense) [compound 548047]			50%	62%	76%	95%	83%	
548055 (eG*eT*kA*dA*dT*dT*d[5mC]*dA*dA*dA*dG*dG*dA*kG*k[5mC]*e[5mC]; antisense) [compound 548055]		300 nM	43%	57%	50%	88%	78%	
548061 (eG*e[5mC]*kT*dT*dG*dT*dG*dT*d[5mC]*dA*d[5mC]*d[5mC]*dT*kT*kT*eG; antisense) [compound 548061]		400 nM	26%	61%	59%		86%	
548069 (e[5mC]*e[5mC]*kA*dA*d[5mC]*dA*dG*dT*dT*dG*dG*dT*dA*kT*kA*eA; antisense) [compound 548069]		1900 nM	6%	0%	27%	66%	57%	
548070 (e[5mC]*e[5mC]*k[5mC]*dA*dA*d[5mC]*dA*dG*dT*dT*dG*dG*dT*kA*kT*eA; antisense) [compound 548070]		1100 nM	26%	35%	48%	63%	85%	
548106 (antisense e[5mC]*e[5mC]*kA*dT*dG*dT*dA*d[5mC]*dT*d[5mC]*dA*dG*d[5mC]*kG*kA*e[5mC]) [compound 548106]			53%	54%	82%	94%		79%
